compound: COc1cc(Nc2ncc(F)c(Nc3ccc4c(n3)NC(=O)C(C)(C)O4)n2)cc(OC)c1OC [R406]; assay: relative viability (nuclei count vs DMSO), 5 days (fraction); higher = more cells survive; conditions: 8 µM
Outline: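 Viability was read as treated-well nuclei divided by vehicle-well nuclei, using the median across plates. Lung cancer cell lines in 1536-well plates were kept overnight at 37 °C, pinned with five √10-spaced library-drug doses, and after 5 days were Hoechst-stained, imaged at 4× and counted in MetaXpress. Plates passed only with control CV below 25% and at least one doubling.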

Cell Line | relative viability
RERF-LC-KJ | 0.827

compound: O=C(/C=C/c1cccnc1)NCCCCC1CCN(C(=O)c2ccccc2)CC1 [Daporinad] + CS(=O)(=O)CCNCc1ccc(-c2ccc3ncnc(Nc4ccc(OCc5cccc(F)c5)c(Cl)c4)c3c2)o1 [Lapatinib] (partner 2 µM); assay: relative viability (nuclei count vs DMSO), 5 days (fraction); higher = more cells survive; conditions: first compound 0.0005 µM
Outline: (§1)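 Relative viability equals treated-well nuclei counts divided by vehicle-well nuclei counts. Counts came from 4× images of lung cancer cell lines grown in 1536-well plates for 5 days after pin-tool dosing on the day after seeding. Dosing used one drug alone or a fixed anchor-drug dose plus five library-drug doses (not always all listed) in √10 steps, and values are medians of duplicate plates.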

Cell Line | relative viability
HCC-827 | 0.454
LXF-289 | 0.847
NCI-H23 | 1.17
NCI-H1299 | 0.956
NCI-H650 | 0.889
CAL-12T | 0.599
NCI-H1651 | 0.803
EPLC-272H | 0.772
NCI-H2228 | 1.14
NCI-H1792 | 0.837
NCI-H1355 | 0.956
NCI-H3122 | 1.01
NCI-H1437 | 0.704
NCI-H1755 | 1
NCI-H2023 | 0.699
HCC-15 | 0.864
PC-3 [JPC-3] | 0.433
EKVX | 0.169
LC-2-ad | 0.959
NCI-H1563 | 1.1
NCI-H1975 | 1.03
SK-LU-1 | 0.889
ABC-1 | 1.14
NCI-H1944 | 0.849
NCI-H661 | 0.374
RERF-LC-KJ | 0.682

same assay, conditions: first compound 0.001581 µM

Cell Line | relative viability
HCC-827 | 0.19
LXF-289 | 0.989
NCI-H23 | 0.987
NCI-H1299 | 0.954
NCI-H650 | 1.25
NCI-H1651 | 1.09
EPLC-272H | 1.18
NCI-H2228 | 1.75
NCI-H1792 | 0.987
NCI-H1355 | 1.09
NCI-H3122 | 1.12
NCI-H1437 | 0.879
NCI-H1755 | 1.03
NCI-H2023 | 0.946
HCC-15 | 0.911
PC-3 [JPC-3] | 0.459
EKVX | 0.223
LC-2-ad | 1.03
NCI-H1563 | 1.07
NCI-H1975 | 1
SK-LU-1 | 0.907
ABC-1 | 0.952
NCI-H1944 | 0.875
NCI-H661 | 0.443
RERF-LC-KJ | 0.803

same assay, conditions: first compound 0.005 µM

Cell Line | relative viability
HCC-827 | 0.212
LXF-289 | 0.91
NCI-H23 | 0.94
NCI-H1299 | 0.955
NCI-H650 | 1.19
CAL-12T | 0.722
NCI-H1651 | 0.796
EPLC-272H | 0.936
NCI-H2228 | 1.52
NCI-H1792 | 0.838
NCI-H1355 | 0.995
NCI-H3122 | 1.01
NCI-H1437 | 0.867
NCI-H1755 | 1.06
NCI-H2023 | 0.76
HCC-15 | 0.859
PC-3 [JPC-3] | 0.437
EKVX | 0.231
LC-2-ad | 0.936
NCI-H1563 | 0.844
NCI-H1975 | 0.917
SK-LU-1 | 1.09
ABC-1 | 1.24
NCI-H1944 | 0.802
NCI-H661 | 0.403
RERF-LC-KJ | 0.799

same assay, conditions: first compound 0.01581 µM

Cell Line | relative viability
HCC-827 | 0.191
LXF-289 | 0.95
NCI-H23 | 0.41
NCI-H1299 | 1.05
NCI-H650 | 1.31
CAL-12T | 0.413
NCI-H1651 | 0.984
EPLC-272H | 1.29
NCI-H2228 | 1.12
NCI-H1792 | 0.932
NCI-H1355 | 0.873
NCI-H3122 | 1.02
NCI-H1437 | 0.85
NCI-H1755 | 1.07
NCI-H2023 | 0.843
HCC-15 | 0.869
PC-3 [JPC-3] | 0.455
EKVX | 0.251
LC-2-ad | 0.972
NCI-H1563 | 0.862
NCI-H1975 | 0.826
SK-LU-1 | 0.969
ABC-1 | 0.86
NCI-H1944 | 0.804
NCI-H661 | 0.402
RERF-LC-KJ | 0.888

compound: COc1cc(Nc2ncc(F)c(Nc3ccc4c(n3)NC(=O)C(C)(C)O4)n2)cc(OC)c1OC [R406] + CS(=O)(=O)N1CCN(Cc2cc3nc(-c4cccc5[nH]ncc45)nc(N4CCOCC4)c3s2)CC1 [Pictilisib] (partner 1 µM); assay: as above; conditions: first compound 0.08 µM
Outline: as §1

Cell Line | relative viability
HCC-827 | 0.944
LXF-289 | 0.724
NCI-H23 | 0.521
NCI-H1299 | 0.791
NCI-H650 | 0.89
CAL-12T | 0.296
NCI-H1651 | 0.512
EPLC-272H | 0.293
NCI-H2228 | 0.587
NCI-H1792 | 0.264
NCI-H1355 | 0.521
NCI-H3122 | 0.581

Reference: the supplement of paper PMC10307832
